Assay results from EP2229935A1, “Peptide derivatives or pharmaceutically acceptable salts thereof, method for producing the same, use of said derivatives and pharmaceutical composition” (Nebolsin, Vladimir Evgenievich, priority 1997, dated 1999).
Like-named read-outs stand apart in the source and are kept apart here. Marks after values point to notes of the source that are not given here.

Experiments:
white mongrel male rats [1] = assay: Paw edema induced by Freund's complete adjuvant; format: in vivo; settings: rats, FCA edema; once 50 µg/kg 1 hour before edema induction
Method: Experiment was carried out on white mongrel male rats weghing 280-300 g. The model of paw edema induced by Freund's complete adjuvant (FCA), was reproduced according to the method of Ezamuzie and Umezurike [Ezamuzie Ch., Umezurike C.C. Effect of histamine H2-receptor antagonists on acute inflammatory of the rat paw oedema. J. Pharmacol. (1989), Vol. 41, pp. 261-265]. Paw volume measurement was done using a plethysmograph (Ugo Basile). Inhibition of inflammatory reaction expressed in percent, as calculated according to the formula: 100-[(R-L(exper.))/(L):(R-L(control))/(L)x100](%) [formula] where R - the right paw volume, L - the left paw volume.
Each group included 10 animals.
Group of animals: • Group 1 - control, animals were administered 0.5 ml of 1% starch solution. • Group 2 - animals were administered the compound XLVIII. • Group 3 - animals were administered the compound III. • Group 4 - animals were administered Naproxene.

white mongrel male rats [2] = assay: Carrageenan paw edema, oral administration (series I); format: in vivo; settings: once 20 µg/kg 1 hour before edema induction
Method: Experiment was carried out on white mongrel male rats weighing 280-300 g. Carrageenan-induced edema was caused according to the method of Winter et al. [[inter et al. In: De Rosa M., Giroud J.P., Willoughby D.A. Studies of the mediators of the acute inflammatory reponse induced in rats in different sites by carrageenan and turpentine. […] Paw volume measurement was done using a plethysmograph (Ugo Basile) 1, 3 and 4 hours after carrageenan administration. Inhibition of inflammatory reaction expressed in percent, was calculated according to the formula: 100-[(R-L(exper.))/(L):(R-L(control))/(L)x100](%) [formula] where R - the right paw volume, L - the left paw volume.
Series I of experiment. […] The reference drug Naproxene was once administered at a dose 20 µg/kg 1 hour before edema induction. Each group included 10 animals.

mongrel rats = assay: Antiischemic activity: necrosis zone after coronary artery occlusion (myocardial infarction); format: in vivo; settings: 4 hours after occlusion, single intraperitoneal immediately after occlusion, 1000 µg/kg
Method: Antiischemic activity of a compound was assessed by an integral test, i.e. effect on the necrosis zone area following reproduction of myocardial infarction in mongrel rats weighing 250-300 g.
Effect of a compound on the necrosis zone area was studied in 4 hours after arterial occlusion in rats using a differential indicator method [Sernov L.N., Gatsura V.V. A differential indicator method for determinig ischemic and necrotic zone in experimental myocardial infarction in rats. Bulletin of Experimental Biology and Medicine (1989), No 5, pp. 534-535]. All the painful manipulations were performed on animals under Ethaminal anesthesia (Ethaminal - 40 mg/kg intraperitoneally). Experiment was carried out in 15 hours after the last compound administration. Each group included 8 animals.
Groups of animals: • Group 1 - intact control -administration of normal saline four times. • Groups 2 and 3 - oral administration of the compound III at doses respectively 50 and 500 µg/kg for 4 days. • Group 4 - single intraperitoneal administration of Nicorandil at a dose 1 mg/kg immediately after occlusion.

superoxide anion-radical = assay: Superoxide anion-radical formation in the xantine-xantine oxidase system (chemiluminescence); format: biochemical
mongrel male rats [3] = assay: Hypolipidemic activity: experimental hyperlipidemia (atherogenic load); settings: atherogenic diet, oral last four days; for HDL-CS / Total CS / Triglycerides: blood; for Kcs: cholesterol index;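 on all read-outs here: serum drawn 18 h after the final dose from rats deprived of food over that interval, groups of 10 animals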
Method: (§1) Hypolipidemic activity of the compounds of general formula (I) was studied on the model of experimental hyperlipidemia [Arichi H., Kumura H.O. Effects of stibens compounds of roots of polygonum cuspidatium on the lipid metabolism. […] Each group of animals included 10 rats. […] Blood samples were taken for analysis 18 hours after the last administration of the test substances during which period food was taken away from rats.
(§2) The following parameters were determined: total cholesterol (total CS); high density lipoprotein cholesterol (HDL-CS); low density lipoprotein cholesterol and very low density lipoprotein cholesterol (LDL-CS and VLDL-CS); triglycerides (TG). Blood serum CS level was determined according to the Ilk method [Biochemical examination in the clinic. […] HDL-CS level was measured in supernatant following heparine-manganese precipitation of LDL+VLDL [Titov V.N., Brener E.D., Khaltaiev N.G., Zadoya A.A., Tvorogova M.G. A method and diagnostic significance of cholesterol level study in α-lipoproteins. […] LDL-CS level determination was carried out by calculation according to the formula presented in the work Friedwald W.T. [Friedwald W.T., Levy K.J., Leus R. Fat transport in lipoproteins: an integrated approach to mechanism and disorders.
(§3) To assess the effect of the test compounds on the ratio of atherogenic and antiatherogenic blood serum lipoproteins, cholesterol index (Kcs) was calculated according to the formula presented in the work [Klimov A.N., Nikulcheva N.G. Lipoproteins, dylipoproteinemias and atherosclerosis.
(§4) Blood serum TG level was determined using the conventional method [Friedwald W.T., Levy R.I., Fredrickson D.S. Estimation of concentration of low-density lipoprotein cholesterol in plasma, without use of preparative ultracentrifuge.

[4] = system: Isolate HIV-1/IV17 of type 1 human immunodeficiency virus; assay: Viability of MT-4 cells acutely infected with HIV-1; format: cell-based; settings: Human immunodeficiency virus 1, MT4, 168 h, day 7, series 2 (infected cells 24, non-infected 88), read-out: Viability of cells in percent
Method: Study was carried out on the culture of human lymphoblastoid cells MT-4. Isolate HIV-1/IV17 of type 1 human immunodeficiency virus from the collection of the D.I.Ivanovsky Institute for Virology was used in experiment. The test compounds of general formula (I): III, VI, VII were introduced into cellular culture at concentrations 1.0; 0.1 and 0.01 µg/ml. The reference drug Azidothymidine was introduced at a dose 0.05 µM/ml. The compounds were introduced into the culture of MT-4 cells at a dose 1000 TCD50 one hour prior to virus introduction. Viability of MT-4 cells was estimated by day 7 of experiment.
Viability of cells was the main efficacy parameter of the test compounds.

peritoneal macrophages = assay: Activity of peritoneal macrophages (NBT reduction test); format: in vivo, mongrel white male mice
Method: Change in the activity of peritoneal macrophages (PM) as effected by the test compounds was studied.
Experiments were carried out on mongrel white male mice with initial body mass 20-22 g. Each group included 10 animals. Compounds III, VI, XLIV were dissolved in normal saline (NS). The test compounds were administered to animals orally for three days at doses 50 and 500 µg/kg. Animals of the control group were given equal volume of NS. Mice were sacrified 20 hours after the last compound administration, peritoneal cavity was washed with 1.5 ml Henks solution comprising 5 U/ml heparine. 0.1 ml of wash solution were incubated for 30 minutes at 37°C with 0.1 ml 0.2% nitroblue tetrasolium (NBT) solution, then smears were prepared. Nuclei were additionaly stained with o.1% neutral red solution. Results were expressed in percent of active cells [Klimov V.V., Kolovkina T.V. Nitroblue tetrasolium reduction test stimulated with pyrogenal. Laborotornoye delo (Laboratory matter) (1982), No 10, pp. 624-625]. […]

[5] = system: hepatic P-450 cytochrome system; assay: Hexenal sleep duration in mice; format: in vivo; settings: CBF1 mice, oral 3 days, control 25.91 ± 1.57
Method: Change in Hexenal sleep (HS) duration is the in vivo measurable index of hepatic P-450 cytochrome system condition.
Studies were carried out on male mice of the lines BALB/c*h75, C57B1/6, CBA, DBA/2, first generation CBF1 and BDF1 hybrides, with initial mass 18-20 g, each group including 10 mice; and on mongrel male guinea pigs with initial mass 250-300 g, each group including 24 animals. All the test compounds (from II to LII) were administered orally in drinking water and for three days at doses 50 and 500 µg/kg. Hexenal hydrochloride at a dose […] of animal mass was administered 24 hours after the last drug administration, except for line BALB/c*h75 mice, which were administered Hexenal at a dose 60 µg/kg at the same terms, and guinea pigs for which Hexenal dose was 30 µg/kg. HS duration was determined in minutes.

mongrel male rats [6] = settings: po, 96 h
Method: as §1, §2, §3, §4

[7] = system: Strain Aichi of type A human influenza virus; format: in vivo; settings: for MLT, days: series with Control - 2 (9.1), 3 days before and 10 days following infection; for Survival rate in percent: series with Control - 2 (34.5); for Protection degree in percent: series with Control - 2
hydroxyl radical = assay: Hydroxyl radical formation in the Fenton reagent (chemiluminescence); format: biochemical
[8] = system: Lewis pulmonary carcinoma (LLC); assay: Lewis pulmonary carcinoma spontaneous metastasizing, oral administration; format: in vivo; settings: BDF1 female mice with LLC, oral 24 days; for Mean number of metastases: day 25
Method: Each group included 15 animals. 0.3 ml of LLC tumor tissue suspension was intramuscularly injected to mice. Henks solution was used as a solvent. […] Moscow (1992) 13 pp.]. […]

[9] = 0.01 mM, control of the series as in the table
[10] = 0.1 mM, control of the series as in the table

Structure (SMILES): COc1ccc2cc([C@H](C)C(=O)O)ccc2c1 [Naproxene, reference compound]
- Inflammation inhibition (%) (white mongrel male rats [1]): 44%
- Volume increment (white mongrel male rats [1]): 0.45 ± 0.02
- Volume of paws (conditional units) Right (white mongrel male rats [1]): 1.75 ± 0.54 conditional units
- Volume of paws (conditional units) left (white mongrel male rats [1]): 1.30 ± 0.25 conditional units
- Inflammation inhibition (%) (white mongrel male rats [2]): 37%
- Volume increment (white mongrel male rats [2]): 0.48 ± 0.02
- Volume of paws (conditional units) Right (white mongrel male rats [2]): 1.82 ± 0.54 conditional units
- Volume of paws (conditional units) left (white mongrel male rats [2]): 1.34 ± 0.25 conditional units

Structure (SMILES): O=C(NCCO[N+](=O)[O-])c1cccnc1 [Nicorandil, reference compound]
- Ischemia zone, percent to the total myocardial mass (mongrel rats): 25,0 ± 1,9%
- Necrosis zone percent to myocardial zone (mongrel rats): 44,3 ± 5,0%
- Necrosis zone, percent to the total myocardial mass (mongrel rats): 11,3 ± 1,6%

Structure (SMILES): CC(=O)N[C@@H](CCC(=O)NCCc1c[nH]cn1)C(=O)O [VI, N -ACETHYL-γ-L-GLUTAMYLHISTAMINE]
- Chemiluminiscence intensity (mV) + σn-1 (superoxide anion-radical; [9]): 7295 ± 106 mV
- relative effect: 1+/I- (superoxide anion-radical; 0.1 mM): 0.76
- Chemiluminiscence intensity (mV) + σn-1 (superoxide anion-radical; [10]): 5518 ± 131 mV
- relative effect: 1+/I- (superoxide anion-radical; 1 mM): 0.12
- Chemiluminiscence intensity (mV) + σn-1 (superoxide anion-radical; 1 mM, control of the series 5616 ± 173, 5391 ± 195, 7290 ± 128 or 6776 ± 150): 902 ± 15 mV
- HDL-CS (mongrel male rats [3]; 50 µg/kg): 35,7±5,6*^A
- Total CS (mongrel male rats [3]; 50 µg/kg): 86,0±5,2
- Triglycerides (mongrel male rats [3]; 50 µg/kg): 141,2±16,1***^A
- HDL-CS (mongrel male rats [3]; 500 µg/kg): 45,8±3,5***^A
- Total CS (mongrel male rats [3]; 500 µg/kg): 70,8±3,7***^A
- Triglycerides (mongrel male rats [3]; 500 µg/kg): 127,2+7,1***^A
- Kcs (mongrel male rats [3]; 50 µg/kg): 1,41±0,16***^A
- Kcs (mongrel male rats [3]; 500 µg/kg): 0,55±0,04***^A
- viability at 0.01 µg/mL ([4]; 0.01 µg/ml): 45%
- viability at 0.1 µg/mL ([4]; 0.1 µg/ml): 49%
- viability at 1 µg/mL ([4]; 1.0 µg/ml): 54%
- portion of active macrophages (peritoneal macrophages; mice, oral three days at 50 and 500 µg/kg): at a dose 50 µg/kg
- Activity of macrophages, percent (peritoneal macrophages; score 0 (no formazane inclusions, inactive PM), 50 µg/kg orally for three days): 17.9 ± 1.4%
- Activity of macrophages, percent (peritoneal macrophages; score 0 (no formazane inclusions, inactive PM), 500 µg/kg orally for three days): 20.3 ± 3.4%
- Activity of macrophages, percent (peritoneal macrophages; score 1 (single formazane inclusions), 50 µg/kg orally for three days): 30.9 ± 3.0%
- Activity of macrophages, percent (peritoneal macrophages; score 1 (single formazane inclusions), 500 µg/kg orally for three days): 37.9 ± 3.1%
- Activity of macrophages, percent (peritoneal macrophages; score 2 (inclusions fill up to 1/3 of PM cytoplasm), 50 µg/kg orally for three days): 40.3 ± 2.1%
- Activity of macrophages, percent (peritoneal macrophages; score 2 (inclusions fill up to 1/3 of PM cytoplasm), 500 µg/kg orally for three days): 34.0 ± 4.0%
- Activity of macrophages, percent (peritoneal macrophages; score 3 (inclusions fill up to 1/2 of PM cytoplasm), 50 µg/kg orally for three days): 10.4 ± 1.9%
- Activity of macrophages, percent (peritoneal macrophages; score 3 (inclusions fill up to 1/2 of PM cytoplasm), 500 µg/kg orally for three days): 7.1 ± 2.0%
- Hexenal sleep duration (minutes) ([5]; 50 µg/kg): 16.86 ± 1.38*** minutes
- Hexenal sleep duration (minutes) ([5]; 500 µg/kg): 14.39 ± 1.73*** minutes
- LDL-CS+ VLDL-CS (mongrel male rats [6]; 0.05 mg/kg): 50,3±5,5**^A
- LDL-CS+ VLDL-CS (mongrel male rats [6]; 0.5 mg/kg): 25,0±1,6***^A
- MLT, days ([7]; 50 µg/kg orally): 11.24*^2 days
- MLT, days ([7]; 500 µg/kg orally): 11.62*^2 days
- Survival rate in percent ([7]; 50 µg/kg orally): 73.3*^2%
- Survival rate in percent ([7]; 500 µg/kg orally): 79.3*^2%
- Protection degree in percent ([7]; 50 µg/kg orally): 38.8%
- Protection degree in percent ([7]; 500 µg/kg orally): 44.8%
- Chemiluminiscence intensity (mV) + σn-1 (hydroxyl radical; [9]): 5014 ± 186 mV
- relative effect: I+/I- (hydroxyl radical; 0.1 mM): 0.63
- Chemiluminiscence intensity (mV) + σn-1 (hydroxyl radical; [10]): 3110 ± 210 mV
- relative effect: I+/I- (hydroxyl radical; 1 mM): 0.05
- Chemiluminiscence intensity (mV) + σn-1 (hydroxyl radical; 1 mM, control of the series 7839 ± 171, 1120 ± 163, 4974 ± 283 or 1332 ± 172): 257 ± 74 mV
- Mean number of metastases ([8]; 50 µg/kg): 35.5 ± 4.5*^2
- Mean number of metastases ([8]; 500 µg/kg): 39.0 ± 14.0
- Metastasizing inhibition percent ([8]; 50 µg/kg): 24.0%
- Metastasizing inhibition percent ([8]; 500 µg/kg): 17.0%
